From patent US20130274237A1, “COMPOSITION INCLUDING CHLOROPHYLL A AS AN ACTIVE INGREDIENT FOR PREVENTING AND TREATING TH2-MEDIATED IMMUNOLOGICAL DISEASES” (GWANGJU INSTITUTE OF SCIENCE AND TECHNOLOGY, priority 2009, published 2013)
“And” between values parts separate entries of the source, which are not always exact repeats. Equal entries are not always repeated.

Key:
[1] = test system: degranulation of mast cells; test: Histology: mast cells per degranulation level; type: in vivo, NC/Nga mice; settings: for No. of Mast Cells per value of degranulation level 0, mean / No. of Mast Cells per value of degranulation level 2, mean: mean of 5 mice; for No. of Mast Cells per value of degranulation level 2 / No. of Mast Cells per value of degranulation level 2, mean: serious level of degranulation
Description: (§1) 4-7) Histology (H & E, Toluidine Blue Stain) • d. Skin tissues were fixed in 10% formalin for at least 24 hours, prepared into paraffin blocks, cut into pieces in the size of 4 μm, dyed with hematoxylin & eosin (Sigma, USA), and then dyed again with toluidine blue (Sigma, USA) for more accurate identification of inflammatory cells.

[2] = test system: skin tissues of atopy-induced NC/Nga mice; test: Histology: H & E biopsy score of skin; type: in vivo; settings: for H & E biopsy score: group mean, acanthosis, hyperkeratosis, neutrophil infiltration, fibroblast hyperplasia, dermis each scored 1 to 3
Description: as §1
The evaluation standard for biopsy was calculated in an averaged score scale of 1 to 3 based on the status of acanthosis, hyperkeratosis, neutrophil infiltration, fibroblast hyperplasia, dermis, etc. […] Among them, a group treated with 1 mg/kg of chlorophyll a as a test drug was evaluated as being of significance (FIGS. 18-23).

[3] = Body weight of atopy-induced NC/Nga mice; settings: DNCB atopy-induced NC/Nga mice
Description: 20 fourteen-week old female NC/Nga mice (Central Lab. Animal Inc., Korea) with a body weight of about 20 g were used. The experimental animals were allowed to adapt for 7 days in the animal rooms before the experiment, and observed for general symptoms.
A test solution prepared by dissolving a mixture consisting of acetone and olive oil in 3:1 ratio in dinitrochlorobenzene (DNCB) to a concentration of about 1% to about 0.2% was coated on the skin of the NC/Nga mice to induce atopic dermatitis.
Body weight was measured twice from the time when the test material was administered.

Q: What does the source list for `C=Cc1c(C)c2cc3nc(c4c5[n-]c(cc6nc(cc1[n-]2)C(C)=C6CC)c(C)c5C(=O)[C@@H]4C(=O)OC)[C@@H](CCC(=O)OC/C=C(\C)CCC[C@H](C)CCC[C@H](C)CCCC(C)C)[C@@H]3C.[Mg+2]` [chlorophyll a]?
A: No. of Mast Cells per value of degranulation level 0, mean ([1]; normal degranulation, 1 mg/kg oral daily, 1 mg/kg): 4.64±1.22 and 4.64; No. of Mast Cells per value of degranulation level 0 ([1]; normal degranulation, 5 mg/kg oral daily, individual mouse, 5 mg/kg): 5.98 and 6.31 and 4.51 and 7.41 and 3.81; No. of Mast Cells per value of degranulation level 0, mean ([1]; normal degranulation, 5 mg/kg oral daily): 5.60; No. of Mast Cells per value of degranulation level 0, mean ([1]; normal degranulation, 5 mg/kg oral daily, 5 mg/kg): 5.60±1.44; No. of Mast Cells per value of degranulation level 2 ([1]; 1 mg/kg oral daily, individual mouse, 1 mg/kg): 1.56 and 0.62 and 0.66 and 1.25 and 2.38; No. of Mast Cells per value of degranulation level 2, mean ([1]; 1 mg/kg oral daily, 1 mg/kg): 1.30±0.73 and 1.30; No. of Mast Cells per value of degranulation level 2 ([1]; 5 mg/kg oral daily, individual mouse, 5 mg/kg): 0.44 and 1.44 and 5.45 and 1.82 and 3.00; No. of Mast Cells per value of degranulation level 2, mean ([1]; 5 mg/kg oral daily, 5 mg/kg): 2.43±1.92 and 2.43; H & E biopsy score ([2]; 1 mg/kg oral daily): 4.6±0.55; tissue H&E reading: improvement in atopy symptom ([2]; 1 mg/kg oral daily, in words): the most improvement; H & E biopsy score ([2]; 5 mg/kg oral daily): 5±1.58; body weight ([3]; 1 mg/kg oral daily, day 1, individual mouse, 1 mg/kg): 25.6 g and 27.4 g and 24.5 g and 24 g and 26.1 g; body weight, group mean ([3]; 1 mg/kg oral daily, day 1, mean of 5 mice): 25.52 g; body weight ([3]; 1 mg/kg oral daily, day 3, individual mouse, 1 mg/kg): 25.7 g and 27.6 g and 25.8 g and 25.5 g and 27.1 g; body weight, group mean ([3]; 1 mg/kg oral daily, day 3, mean of 5 mice): 26.34 g; body weight ([3]; 1 mg/kg oral daily, day 5, individual mouse, 1 mg/kg): 27.3 g and 28.2 g and 26.5 g and 26 g and 27.8 g; body weight, group mean ([3]; 1 mg/kg oral daily, day 5, mean of 5 mice): 27.16 g; body weight ([3]; 1 mg/kg oral daily, day 7, individual mouse, 1 mg/kg): 27.3 g and 27.6 g and 26.5 g and 24.7 g and 28.6 g; body weight, group mean ([3]; 1 mg/kg oral daily, day 7, mean of 5 mice): 26.94 g; body weight ([3]; 1 mg/kg oral daily, day 9, individual mouse, 1 mg/kg): 28.4 g and 27.4 g and 25.8 g and 25.7 g and 27.7 g; body weight, group mean ([3]; 1 mg/kg oral daily, day 9, mean of 5 mice): 27 g; body weight, group mean ([3]; 1 mg/kg oral daily, day 11 (time of sacrifice), mean of 5 mice, 1 mg/kg): 28.36 ± 1.045 g and 28.36 g; body weight ([3]; 1 mg/kg oral daily, day 11, individual mouse, 1 mg/kg): 29 g and 28.9 g and 27.5 g and 27 g and 29.4 g; body weight ([3]; 5 mg/kg oral daily, day 1, individual mouse, 5 mg/kg): 24.9 g and 28.6 g and 27.5 g (2×) and 27.1 g; body weight, group mean ([3]; 5 mg/kg oral daily, day 1, mean of 5 mice): 27.12 g; body weight ([3]; 5 mg/kg oral daily, day 3, individual mouse, 5 mg/kg): 24.8 g and 29.6 g and 27.1 g and 29 g and 27.4 g; body weight, group mean ([3]; 5 mg/kg oral daily, day 3, mean of 5 mice): 27.58 g; body weight ([3]; 5 mg/kg oral daily, day 5, individual mouse, 5 mg/kg): 25.9 g and 30.8 g and 26.7 g and 29.3 g and 28 g; body weight, group mean ([3]; 5 mg/kg oral daily, day 5, mean of 5 mice): 28.14 g; body weight ([3]; 5 mg/kg oral daily, day 7, individual mouse, 5 mg/kg): 25.9 g and 30.6 g and 27.2 g and 30.2 g and 28.2 g; body weight, group mean ([3]; 5 mg/kg oral daily, day 7, mean of 5 mice): 28.42 g; body weight ([3]; 5 mg/kg oral daily, day 9, individual mouse, 5 mg/kg): 25.3 g and 30.6 g and 27.2 g and 29 g and 27 g; body weight, group mean ([3]; 5 mg/kg oral daily, day 9, mean of 5 mice): 27.82 g; body weight, group mean ([3]; 5 mg/kg oral daily, day 11 (time of sacrifice), mean of 5 mice, 5 mg/kg): 28.86 ± 2.033 g and 28.86 g; body weight ([3]; 5 mg/kg oral daily, day 11, individual mouse, 5 mg/kg): 25.7 g and 31.3 g and 29.2 g and 29.5 g and 28.6 g; change in body weight by the administration ([3]; oral administration, in words): no decrease
